The values that follow come from US9354225B2 (priority 2009, dated 2016).

Like-named read-outs stand apart in the source and are kept apart here.

The experiment deals with PrPsc signal in buffy coat (scrapie blood leukocytes). Format: cell-based, sheep. As to conditions: for PrPsc signal from the buffy coat (OD): additive 5 mM final in whole blood at collection, stored 24 h at 4° C. or room temperature; for preservation of the PrPsc harbored in the buffy coat of blood: scrapie sheep of both ARQ/ARQ and VRQ/VRQ genotypes, additive in blood, stored for at least 24 h.

Where [1] appears, read: pre-clinical scrapie sheep #1 (ARQ/ARQ), FIG. 1.
Setting [2] is: pre-clinical scrapie sheep #2 (ARQ/ARQ), FIG. 2.

As for `N[C@@H](CCC(=O)N[C@@H](CS)C(=O)NCC(=O)O)C(=O)O` [L-glutathione (reduced)], the “preservation of the PrPsc harbored in the buffy coat of blood” value is recorded as “allow for the preservation of the PrPsc”. The “PrPsc signal from the buffy coat (OD)” value under setting [1] was “preserve the PrPsc signal”. Also, under setting [2], the “PrPsc signal from the buffy coat (OD)” value is “preserve the PrPsc signal”. For the same compound, the “detection signal in buffy coat fractions of blood samples” value (scrapie animals, samples processed 24 hours post-collection) is reported as “can preserve the detection signal”.
As for oxidized L-glutathione, the “percentage loss of PrPsc signal relative to sample processed immediately” value was “lack of effect”.
As to `O=C(O)CN(CCOCCOCCN(CC(=O)O)CC(=O)O)CC(=O)O` [EGTA, ethylene glycol tetraacetic acid], the “preservation of the PrPsc harbored in the buffy coat of blood” value was “allow for the preservation of the PrPsc”. Also, the “PrPsc signal from the buffy coat (OD)” value under setting [1] is reported as “preserve the PrPsc signal”. In addition, the “PrPsc signal from the buffy coat (OD)” value under setting [2] is on record as “preserve the PrPsc signal”.
